In data set [1] the test system is LAD2. Description: Cytotoxicity against human LAD2 cells assessed as reduction in cell viability at 10 uM incubated for 24 hrs by Cell Counting Kit assay. It is filed as toxicity, cell-based. The following applies: lad2, 24 h. In general terms: Tetrazolium assays rely on reduction of a dye to a coloured formazan, in cell work by metabolically active cells.
Data set [2] concerns LAD2. Put plainly: Anti-pseudo allergic activity in human LAD2 cells assessed as inhibition of C48/80-induced beta-hexosaminidase release. It is filed as functional, cell-based.
The subject of data set [3] is LAD2. Description: Anti-pseudo allergic activity in human LAD2 cells assessed as inhibition of C48/80-induced histamine release at 0.1 to 10 uM pretreated for 30 mins followed by C48/80 addition measured after 30 mins by HPLC-MS analysis. It is filed as functional, cell-based. As to conditions: dose 0.1-10 µM.
Data set [4] relates to LAD2. Put plainly: Anti-pseudo allergic activity in human LAD2 cells assessed as inhibition of C48/80-induced beta-hexosaminidase release at 0.1 to 10 uM pretreated for 30 mins followed by C48/80 addition measured after 30 mins. It is filed as functional, cell-based. As to conditions: dose 0.1-10 µM, time 1.0 hrs.
Data set [5] has as its system HEK293. Description: Anti-pseudo allergic activity in HEK293 cells expressing H1R assessed as inhibition of histamine induced calcium release at 0 to 10 uM. Type of data set: functional, cell-based. The following applies: Homo sapiens, dose 0-10 µM.
In data set [6] the test system is LAD2. Description: Anti-pseudo allergic activity in human LAD2 cells assessed as decrease in C48/80-induced calcium intracellular mobilization at 10 uM by fluorescence based assay. Type of data set: functional, cell-based.
Data set [7] has as its system Mus musculus. Description: Anti-pseudo allergic activity against C48/80-induced passive cutaneous anaphylaxis mouse model assessed as increase in local tissue edema vascular permeability at 1 to 10 mg/kg followed by C48/80 administration after 30 mins post-compound administration measured every 5 mins for 30 mins. Type of data set: functional, organism-based. The following applies: dose 1-10 mg/kg.

The test system of data set [8] is Mus musculus. Description: Anti-pseudo allergic activity against C48/80-induced passive cutaneous anaphylaxis mouse model assessed as decrease in degranulation level at 0 to 1 mg/kg followed by C48/80 addition measured after 45 mins by FITC-avidin staining based laser scanning confocal microscopy. Type of data set: functional, organism-based. As to conditions: dose 0-1 mg/kg.

For data set [9], the system named is Mus musculus. Description: Anti-pseudo allergic activity against C48/80-induced passive cutaneous anaphylaxis C57 mouse model assessed as reduction in paw thickness rate at 0 to 1 mg/kg followed by C48/80 intravenously administration after 15 mins by Evans blue method. As to conditions: dose 0-1 mg/kg, route iv. It is filed as functional, organism-based.
The test system of data set [10] is Mus musculus. Description: Anti-pseudo allergic activity against C48/80-induced passive cutaneous anaphylaxis mouse model assessed as body temperature loss at 10 mg/kg followed by C48/80 administration intravenously after 30 mins post-compound administration measured every 5 mins for 30 mins. It is filed as functional, organism-based. As to conditions: route iv, time 1.0 hrs.

The test system of data set [11] is Mus musculus. Description: Anti-pseudo allergic activity against C48/80-induced passive cutaneous anaphylaxis mouse model assessed as reduction in serum histamine level at 1 to 10 mg/kg followed by C48/80 administration intravenously after 30 mins post-compound administration measured every 5 mins for 30 mins by LC/MS/MS analysis. The following applies: dose 1-10 mg/kg, route iv. It is filed as functional, organism-based.

For data set [12], the target named is T1, Mas-related G-protein coupled receptor member X2 (Homo sapiens) (UniProt Q96LB1).
T1 sequence (whole entry): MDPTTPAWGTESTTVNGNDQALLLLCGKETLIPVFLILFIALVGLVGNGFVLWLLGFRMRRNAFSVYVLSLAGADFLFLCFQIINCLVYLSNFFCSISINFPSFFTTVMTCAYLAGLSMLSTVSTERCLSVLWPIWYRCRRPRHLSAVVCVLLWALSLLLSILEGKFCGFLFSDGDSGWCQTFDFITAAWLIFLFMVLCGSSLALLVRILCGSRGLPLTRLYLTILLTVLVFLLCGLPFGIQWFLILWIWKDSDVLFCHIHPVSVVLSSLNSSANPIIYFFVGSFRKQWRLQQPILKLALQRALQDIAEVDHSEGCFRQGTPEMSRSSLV
Description: Antagonist activity at MRGPRX2 (unknown origin) expressed in HEK293 cells assessed as inhibition of calcium mobilization at upto 10 uM. As to conditions: filed as antagonist. It is filed as functional, cell-based. In general terms: Calcium assays in cells follow changes in intracellular calcium, usually with a dye or a luminescent sensor.

Data set [13] has as its system Mus musculus. Put plainly: Anti-pseudo allergic activity against passive cutaneous anaphylaxis-induced C57 mouse model assessed as reduction in C48/80-induced extravasation rate at 0 to 1 mg/kg followed by C48/80 intravenously administration after 15 mins by Evans blue method. It is filed as functional, organism-based. As to conditions: dose 0-1 mg/kg, route iv.
Data set [14] deals with Mus musculus. Put plainly: Anti-pseudo allergic activity against passive cutaneous anaphylaxis-induced mouse model assessed as systemic symptoms at 1 to 10 mg/kg followed by C48/80 administration after 30 mins post-compound administration measured every 5 mins for 30 mins. It is filed as functional, organism-based. The following applies: dose 1-10 mg/kg.
In data set [15] the test system is HEK293. Put plainly: Anti-pseudo allergic activity in HEK293 cells assessed as prevention of calcium entry in presence of emodin at 0 to 10 uM. As to conditions: Homo sapiens, dose 0-10 µM. It is filed as functional, cell-based.

In ChEMBL document CHEMBL5137071, “Convenient Diaryl Ureas as Promising Anti-pseudo-allergic Agents” (J Med Chem, 2022) one finds Activity, IC50 and inhibition data, which are given here for 13 compounds.

By IC50 is commonly meant the concentration that inhibits the measured activity by half.

The structures appear in SMILES notation. The source made the active and inactive calls. The calls are words filed in the database; no cut-off is given here.

On to `O=C(Nc1ccc(C(F)(F)F)cc1)Nc1ccc(C(F)(F)F)cc1Cl`, for which the Activity entry in data set [1] is listed as “Non-Toxic”. Further, the IC50 in data set [2] worked out at 800 nM. In addition, the inhibition result in data set [3] was “Active”. Moreover, the result in [4] was Active.
For the compound `O=C(Nc1cccc(C(F)(F)F)c1)Nc1cccc(C(F)(F)F)c1`, the Activity result in [1] is recorded as “Non-Toxic”. For the same compound, the IC50 in [2] came out at 1590 nM. Further, the inhibition result in [3] is “Active”. The result in data set [4] was Active.
As for `O=C(Nc1ccc(C(F)(F)F)cc1)Nc1ccc(C(F)(F)F)cc1`, the result in data set [5], in data set [6], in [7], in data set [8], in data set [9] and in data set [10] was Active. Also, the outcome in [11], in data set [12], in data set [13], in data set [14], in data set [15] and in data set [4] was Active. In [1], the Activity entry is given as “Non-Toxic”. Besides, the IC50 in data set [2] was determined as 970 nM. In addition, in data set [3], the inhibition result was “Active”.
On to `O=C(Nc1ccc(F)cc1)Nc1ccc(F)cc1`, for which the Activity entry in data set [1] is “Non-Toxic”.
On to `O=C(Nc1ccc(Cl)c(C(F)(F)F)c1)Nc1ccc(Cl)c(C(F)(F)F)c1`, for which the outcome in [5], in data set [6], in data set [7], in data set [8], in data set [9] and in data set [10] was Active. The outcome in [11], in [12], in data set [13], in data set [14], in data set [15] and in data set [4] was Active. Besides, the Activity result in [1] was “Non-Toxic”. Besides, in [2], the IC50 amounted to 790 nM. Moreover, in data set [3], the inhibition result is “Active”.
In the case of `O=C(Nc1ccc(Cl)c(C(F)(F)F)c1)Nc1ccc(C(F)(F)F)cc1Cl`, in data set [2], the IC50 is 1100 nM. The inhibition result in data set [3] is “Active”. The result in data set [4] was Active.
For `O=C(Nc1ccc(C(F)(F)F)cc1)Nc1cc(Br)cc(C(F)(F)F)c1`, the result in [5], in data set [6], in [7], in data set [8], in data set [9] and in data set [10] was Active. The outcome in data set [11], in data set [12], in data set [13], in data set [14], in data set [15] and in data set [4] was Active. Besides, the Activity entry in data set [1] is on record as “Non-Toxic”. Moreover, the IC50 in data set [2] was 620 nM. In [3], the inhibition entry is “Active”.
Turning to `O=C(Nc1ccc(F)cc1)Nc1ccc(C(F)(F)F)cc1`, in [1], the Activity result was “Non-Toxic”. Further, in data set [2], the IC50 came to 1640 nM. The inhibition entry in [3] was “Active”. The result in [4] was Active.
In the case of `O=C(Nc1ccc(F)cc1)Nc1ccc(C(F)(F)F)cc1Cl`, the Activity entry in [1] was “Non-Toxic”. Besides, the IC50 in data set [2] is 1400 nM. Moreover, the inhibition result in data set [3] is “Active”. In addition, the result in data set [4] was Active.
Regarding `O=C(Nc1ccc(Br)cc1)Nc1ccc(Br)cc1`, the Activity entry in [1] is “Non-Toxic”.
In the case of `O=C(Nc1ccc(Br)cc1)Nc1ccc(C(F)(F)F)cc1Cl`, in [1], the Activity entry was “Non-Toxic”. The IC50 in data set [2] turned out to be 2510 nM. In [3], the inhibition entry is “Active”. Besides, the outcome in [4] was Active.
Turning to `O=C(Nc1ccc(C(F)(F)F)cc1Cl)Nc1ccc(C(F)(F)F)cc1Cl`, the Activity result in data set [1] is listed as “Non-Toxic”. Also, in data set [2], the IC50 came to 2160 nM. Moreover, the inhibition entry in [3] was “Active”. In data set [4], the result was Active.
Turning to `O=C(Nc1ccc(F)cc1)Nc1cc(Br)cc(C(F)(F)F)c1`, the Activity result in [1] is “Non-Toxic”.
